Laboratory results: article PMC5584945, “Evaluation of robenidine analog NCL195 as a novel broad-spectrum antibacterial agent” (PLoS ONE, 2017)
Converted amounts (≈) assume the structure as drawn.

What was measured:
S. pneumoniae = assay: MIC, broth micro-dilution (CLSI); format: cell-based, Streptococcus pneumoniae; conditions: for MIC / MIC50 / MIC90: Streptococcus pneumoniae
[1] = test system: panel of mammalian cell lines (Caco-2, HEL 299, Hep G2, MDBK, MCF7); assay: In vitro cytotoxicity, WST-1, all cell lines tested; format: cell-based; conditions: lower bound over all the cell lines tested
From the text: (§1) In order to ensure minimal off target mammalian cell cytotoxicity, we assayed NCL812, NCL195 and NCL219 for in vitro cytotoxicity using a panel of adherent mammalian cell lines: Caco-2 (human colorectal adenocarcinoma cell line), HEL 299 (non-cancerous human lung fibroblast cell line), Hep G2 (human hepatocellular carcinoma cell line), MDBK (normal bovine kidney cell line) and MCF7 (human mammary gland adenocarcinoma cell line). Cell lines were maintained in Dulbecco’s Modified Eagle’s Medium (DMEM; […] After 24 h incubation, media was removed, washed once with medium without antibiotics and fresh medium supplemented with 10% (vol/vol) FBS was added. […] Following exposure for 24 h, WST-1 reagent was added to each well at a final concentration of 10%. […] The IC50 value for each compound against each cell line was determined via non-linear regression (three parameters) using GraphPad Prism v6 software. The robustness of assays was confirmed with selected cell lines (Hep G2 and MDBK) seeded onto a 96–well Microwell Nunclon Delta Surface plate (Thermo Scientific Nunc; Cat No: 136101) at 5 × 10^4 cells per well.

human red blood cells = assay: Haemolysis assay; format: cell-based; conditions: 1 h, 37°C; highest concentration used 128 μg/ml
Description: This was performed using fresh donor human red blood cells (RBCs), essentially as described previously. Fresh RBCs were washed in PBS three times at 500 × g for 5 min, and then resuspended 1% (w/v) in PBS. […] Thereafter, 198 μL of the 1% RBC solution was added into each well, and the mixture incubated for 1 h at 37°C, with shaking at 100 rpm. Quadruplicate wells containing either 1% Triton X100, or PBS only, served as controls. After incubation, the trays were centrifuged at 1,000 × g for 3 min and 100 μl of supernatant from each well transferred into a new 96-well tray. Absorbance was measured at A450 nm on a Multiskan Ascent 354 Spectrophotometer (Labsystems) and plotted against each dilution. Haemolytic titer was determined as the reciprocal of the dilution at which 50% of erythrocytes were lysed at A450 nm. The experiment was performed twice.

Hep G2 = assay: In vitro cytotoxicity, WST-1; format: cell-based; conditions: Homo sapiens, HepG2; 24 h exposure; read-out: IC50 values ± SEM
From the text: as §1

MDBK = assay: Real-time cell viability, RealTime-Glo MT; format: cell-based, bovine; conditions: 2 or 8 μg/ml, up to 20 h post-treatment
From the text: as §1

## Cc1ccc(/C=N/Nc2cc(N/N=C/c3ccc(C)cc3)nc(N)n2)cc1 [NCL195, 4,6-bis(2-((E)-4-methylbenzylidene)hydrazinyl)pyrimidin-2-amine]
S. pneumoniae; 21 isolates
  MIC range: 2 to 8 µg/mL
S. pneumoniae; S1 Table isolates, 5% FBS + 3% washed RBC
  MIC range: 2 to 8 µg/mL
S. pneumoniae; S1 Table isolates, 10% FBS + 3% washed RBC
  MIC range: 2 to 8 µg/mL
S. pneumoniae; S. pneumoniae D39, human, horse or mouse serum
  Change of MIC in the presence of serum: remained the same
S. pneumoniae; A66.1 (serotype 3), 5% FBS
  MIC: 8 µg/mL (≈ 22.3 µM)
S. pneumoniae; A66.1 (serotype 3), 10% FBS
  MIC: 8 µg/mL (≈ 22.3 µM)
S. pneumoniae; ATCC6303, ATCC 6303 (serotype 3), 5% FBS + 3% washed RBC
  MIC: 4 µg/mL
S. pneumoniae; ATCC6303, ATCC 6303 (serotype 3), 10% FBS + 3% washed RBC
  MIC: 4 µg/mL
S. pneumoniae; D39/D39LUX (serotype 2), 5% FBS
  MIC: 8 µg/mL (≈ 22.3 µM)
S. pneumoniae; D39/D39LUX (serotype 2), 10% FBS
  MIC: 8 µg/mL (≈ 22.3 µM)
S. pneumoniae; EF3030 (serotype 19F), 5% FBS
  MIC: 8 µg/mL (≈ 22.3 µM)
S. pneumoniae; EF3030 (serotype 19F), 10% FBS
  MIC: 8 µg/mL (≈ 22.3 µM)
S. pneumoniae; L82016 (serotype 6B), 5% FBS
  MIC: 4 µg/mL (≈ 11.1 µM)
S. pneumoniae; L82016 (serotype 6B), 10% FBS
  MIC: 8 µg/mL (≈ 22.3 µM)
S. pneumoniae; P9 (serotype 6A), 5% FBS
  MIC: 8 µg/mL (≈ 22.3 µM)
S. pneumoniae; P9 (serotype 6A), 10% FBS
  MIC: 8 µg/mL (≈ 22.3 µM)
S. pneumoniae; P21 (serotype 3), 5% FBS
  MIC: 8 µg/mL (≈ 22.3 µM)
S. pneumoniae; P21 (serotype 3), 10% FBS
  MIC: 8 µg/mL (≈ 22.3 µM)
S. pneumoniae; S1 Table isolates, 5% FBS
  MIC50: 4 µg/mL (≈ 11.1 µM)
  MIC90: 8 µg/mL (≈ 22.3 µM)
S. pneumoniae; S1 Table isolates, 10% FBS
  MIC50: 8 µg/mL (≈ 22.3 µM)
  MIC90: 8 µg/mL (≈ 22.3 µM)
S. pneumoniae; TIGR4 (serotype 4), 5% FBS
  MIC: 4 µg/mL (≈ 11.1 µM)
S. pneumoniae; TIGR4 (serotype 4), 10% FBS
  MIC: 4 µg/mL (≈ 11.1 µM)
S. pneumoniae; WCH16 (serotype 6A), 5% FBS
  MIC: 8 µg/mL (≈ 22.3 µM)
S. pneumoniae; WCH16 (serotype 6A), 10% FBS
  MIC: 8 µg/mL (≈ 22.3 µM)
S. pneumoniae; WCH43 (serotype 4), 5% FBS
  MIC: 4 µg/mL (≈ 11.1 µM)
S. pneumoniae; WCH43 (serotype 4), 10% FBS
  MIC: 4 µg/mL (≈ 11.1 µM)
S. pneumoniae; WCH46 (serotype 4), 5% FBS
  MIC: 4 µg/mL (≈ 11.1 µM)
S. pneumoniae; WCH46 (serotype 4), 10% FBS
  MIC: 4 µg/mL (≈ 11.1 µM)
S. pneumoniae; WCH57 (serotype 8), 5% FBS
  MIC: 4 µg/mL (≈ 11.1 µM)
S. pneumoniae; WCH57 (serotype 8), 10% FBS
  MIC: 4 µg/mL (≈ 11.1 µM)
S. pneumoniae; WCH77 (serotype 5), 5% FBS
  MIC: 2 µg/mL (≈ 5.56 µM)
S. pneumoniae; WCH77 (serotype 5), 10% FBS
  MIC: 2 µg/mL (≈ 5.56 µM)
S. pneumoniae; WCH86 (serotype 4), 5% FBS
  MIC: 4 µg/mL (≈ 11.1 µM)
S. pneumoniae; WCH86 (serotype 4), 10% FBS
  MIC: 4 µg/mL (≈ 11.1 µM)
S. pneumoniae; WCH89 (serotype 7), 5% FBS
  MIC: 8 µg/mL (≈ 22.3 µM)
S. pneumoniae; WCH89 (serotype 7), 10% FBS
  MIC: 8 µg/mL (≈ 22.3 µM)
S. pneumoniae; WCH92 (serotype 4), 5% FBS
  MIC: 4 µg/mL (≈ 11.1 µM)
S. pneumoniae; WCH92 (serotype 4), 10% FBS
  MIC: 4 µg/mL (≈ 11.1 µM)
S. pneumoniae; WCH137 (serotype 6A), 5% FBS
  MIC: 8 µg/mL (≈ 22.3 µM)
S. pneumoniae; WCH137 (serotype 6A), 10% FBS
  MIC: 8 µg/mL (≈ 22.3 µM)
S. pneumoniae; WCH158 (serotype 19F), 5% FBS
  MIC: 4 µg/mL (≈ 11.1 µM)
S. pneumoniae; WCH158 (serotype 19F), 10% FBS
  MIC: 4 µg/mL (≈ 11.1 µM)
S. pneumoniae; WCH184 (serotype 19F), 5% FBS
  MIC: 8 µg/mL (≈ 22.3 µM)
S. pneumoniae; WCH184 (serotype 19F), 10% FBS
  MIC: 8 µg/mL (≈ 22.3 µM)
S. pneumoniae; WCH211 (serotype 11), 5% FBS
  MIC: 4 µg/mL (≈ 11.1 µM)
S. pneumoniae; WCH211 (serotype 11), 10% FBS
  MIC: 4 µg/mL (≈ 11.1 µM)
S. pneumoniae; WU2 (serotype 3), 5% FBS
  MIC: 8 µg/mL (≈ 22.3 µM)
S. pneumoniae; WU2 (serotype 3), 10% FBS
  MIC: 8 µg/mL (≈ 22.3 µM)
[1]
  IC50: > 10 µg/mL
Human red blood cells
  50% haemolysis titre (HC50): > 128 µg/mL
Hep G2
  IC50: 12 ± 0.1 µg/mL (≈ 33.4 µM)
MDBK
  Effect on cell viability (real-time): no measurable effect on cell viability
